Two compounds from publication PMC9329436, “Optimization of the 4-anilinoquin(az)oline scaffold as epidermal growth factor receptor (EGFR) inhibitors for chordoma utilizing a toxicology profiling assay platform” (Scientific Reports, 2022) can be followed below.

Read-outs that look alike come from different tables or passages of the source.

Holding throughout (type): biochemical
For test [1], the target named is 320 wild-type protein kinases (Homo sapiens, UniProt Q9UBS0). The conditions noted are these: kinase S6K-beta, singlicate. The text has this:
(§1) Table S4. Profiling of two compounds at two concentrations against 320 wild-type protein kinases; singlicate measurement; Residual activities (% of control).

In test [2] the target is 320 wild-type protein kinases (Homo sapiens, UniProt P16591). The conditions noted are these: FER, singlicate.
Excerpt: as §1

Test [3] deals with T1, 320 wild-type protein kinases (Homo sapiens, UniProt Q13043).
T1 sequence (Q13043 1-487): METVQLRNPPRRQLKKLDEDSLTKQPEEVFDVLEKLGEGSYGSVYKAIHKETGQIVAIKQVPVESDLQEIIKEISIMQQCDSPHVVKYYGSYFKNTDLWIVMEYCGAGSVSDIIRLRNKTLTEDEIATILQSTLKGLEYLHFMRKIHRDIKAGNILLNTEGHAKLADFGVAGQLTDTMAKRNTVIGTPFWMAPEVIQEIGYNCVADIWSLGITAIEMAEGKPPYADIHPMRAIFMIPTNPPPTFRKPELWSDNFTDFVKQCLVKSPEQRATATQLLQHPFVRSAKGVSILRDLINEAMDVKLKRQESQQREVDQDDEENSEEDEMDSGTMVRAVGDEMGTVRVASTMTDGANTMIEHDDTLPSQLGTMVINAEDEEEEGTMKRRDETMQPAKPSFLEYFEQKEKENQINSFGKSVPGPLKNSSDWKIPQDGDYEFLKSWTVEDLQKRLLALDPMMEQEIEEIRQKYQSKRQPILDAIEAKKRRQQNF
The conditions noted are these: singlicate.
Excerpt: as §1

Test [4] concerns the target 320 wild-type protein kinases (Homo sapiens, UniProt Q9BWU1). Particulars: CDK19/CycC, singlicate.
Excerpt: as §1

Test [5] concerns the target T2, 320 wild-type protein kinases (Homo sapiens, UniProt P42680).
T2 sequence (P42680 1-631): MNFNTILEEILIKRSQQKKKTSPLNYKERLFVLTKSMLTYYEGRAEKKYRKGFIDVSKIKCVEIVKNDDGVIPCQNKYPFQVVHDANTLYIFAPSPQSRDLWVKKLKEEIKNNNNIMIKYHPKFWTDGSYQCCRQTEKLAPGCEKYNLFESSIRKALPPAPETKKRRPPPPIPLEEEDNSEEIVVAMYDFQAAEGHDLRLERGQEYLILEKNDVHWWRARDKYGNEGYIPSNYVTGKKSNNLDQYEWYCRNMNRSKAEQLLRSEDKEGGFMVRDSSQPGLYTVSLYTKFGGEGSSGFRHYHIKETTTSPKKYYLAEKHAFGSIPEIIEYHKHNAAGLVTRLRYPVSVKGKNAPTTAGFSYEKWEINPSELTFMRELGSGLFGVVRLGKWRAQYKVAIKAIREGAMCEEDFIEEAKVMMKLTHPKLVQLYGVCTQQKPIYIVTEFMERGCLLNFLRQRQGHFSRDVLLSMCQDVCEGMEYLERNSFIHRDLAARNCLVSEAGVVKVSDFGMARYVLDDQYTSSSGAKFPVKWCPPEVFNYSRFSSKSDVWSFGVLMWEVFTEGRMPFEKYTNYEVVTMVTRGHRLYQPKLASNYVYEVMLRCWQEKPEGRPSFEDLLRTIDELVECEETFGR
The conditions noted are these: kinase TEC, singlicate.
Excerpt: as §1

In test [6] the target is 320 wild-type protein kinases (Homo sapiens, UniProt P29317). The conditions noted are these: singlicate.
Excerpt: as §1

In test [7] the target is 320 wild-type protein kinases (Homo sapiens, UniProt P49137). The conditions noted are these: singlicate.
Excerpt: as §1

Test [8] concerns the target T3, 320 wild-type protein kinases (Homo sapiens, UniProt O43318).
T3 sequence (O43318 1-606): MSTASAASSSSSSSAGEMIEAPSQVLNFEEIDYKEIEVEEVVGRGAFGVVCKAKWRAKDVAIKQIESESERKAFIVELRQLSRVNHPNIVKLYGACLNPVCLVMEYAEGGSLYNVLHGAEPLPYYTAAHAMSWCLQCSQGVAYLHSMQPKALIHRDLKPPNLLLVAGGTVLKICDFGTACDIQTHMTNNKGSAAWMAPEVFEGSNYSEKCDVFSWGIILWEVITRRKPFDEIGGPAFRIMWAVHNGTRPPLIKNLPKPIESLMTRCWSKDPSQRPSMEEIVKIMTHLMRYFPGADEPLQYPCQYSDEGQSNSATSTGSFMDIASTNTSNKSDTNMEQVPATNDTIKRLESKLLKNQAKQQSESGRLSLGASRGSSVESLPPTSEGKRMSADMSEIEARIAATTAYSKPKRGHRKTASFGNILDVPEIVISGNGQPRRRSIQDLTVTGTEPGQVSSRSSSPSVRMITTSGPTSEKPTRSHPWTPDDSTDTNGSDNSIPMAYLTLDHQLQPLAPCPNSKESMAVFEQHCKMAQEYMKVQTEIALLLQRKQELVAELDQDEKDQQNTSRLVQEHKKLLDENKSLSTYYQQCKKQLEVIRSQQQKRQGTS
The conditions noted are these: singlicate.
Excerpt: as §1

The target of test [9] is 320 wild-type protein kinases (Homo sapiens, UniProt P48730). The conditions noted are these: CK1-delta, singlicate.
Excerpt: as §1

Chain of 320 wild-type protein kinases (Homo sapiens, UniProt P16591) (P16591 whole entry): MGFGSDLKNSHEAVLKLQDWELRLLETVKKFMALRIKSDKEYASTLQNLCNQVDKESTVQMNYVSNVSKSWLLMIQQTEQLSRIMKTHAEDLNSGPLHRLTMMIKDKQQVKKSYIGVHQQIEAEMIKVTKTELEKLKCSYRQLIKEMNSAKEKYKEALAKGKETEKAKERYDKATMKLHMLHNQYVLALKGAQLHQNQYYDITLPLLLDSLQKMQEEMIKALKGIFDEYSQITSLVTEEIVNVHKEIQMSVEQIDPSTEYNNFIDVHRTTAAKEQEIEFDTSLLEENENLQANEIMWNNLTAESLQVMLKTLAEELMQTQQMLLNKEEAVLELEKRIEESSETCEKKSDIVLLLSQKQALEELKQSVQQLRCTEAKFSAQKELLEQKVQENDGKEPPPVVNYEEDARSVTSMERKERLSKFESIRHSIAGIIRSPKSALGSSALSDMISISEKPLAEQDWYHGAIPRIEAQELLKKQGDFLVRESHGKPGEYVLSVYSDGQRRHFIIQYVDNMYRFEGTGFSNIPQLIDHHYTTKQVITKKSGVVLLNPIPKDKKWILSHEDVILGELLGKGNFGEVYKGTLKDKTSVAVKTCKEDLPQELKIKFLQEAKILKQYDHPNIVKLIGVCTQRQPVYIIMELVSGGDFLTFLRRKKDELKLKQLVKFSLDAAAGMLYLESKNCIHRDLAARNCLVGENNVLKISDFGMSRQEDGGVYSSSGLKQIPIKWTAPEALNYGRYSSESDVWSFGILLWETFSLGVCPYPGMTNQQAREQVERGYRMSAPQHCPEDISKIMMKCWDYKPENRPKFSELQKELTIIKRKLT
Chain of 320 wild-type protein kinases (Homo sapiens, UniProt P48730) (P48730 whole entry): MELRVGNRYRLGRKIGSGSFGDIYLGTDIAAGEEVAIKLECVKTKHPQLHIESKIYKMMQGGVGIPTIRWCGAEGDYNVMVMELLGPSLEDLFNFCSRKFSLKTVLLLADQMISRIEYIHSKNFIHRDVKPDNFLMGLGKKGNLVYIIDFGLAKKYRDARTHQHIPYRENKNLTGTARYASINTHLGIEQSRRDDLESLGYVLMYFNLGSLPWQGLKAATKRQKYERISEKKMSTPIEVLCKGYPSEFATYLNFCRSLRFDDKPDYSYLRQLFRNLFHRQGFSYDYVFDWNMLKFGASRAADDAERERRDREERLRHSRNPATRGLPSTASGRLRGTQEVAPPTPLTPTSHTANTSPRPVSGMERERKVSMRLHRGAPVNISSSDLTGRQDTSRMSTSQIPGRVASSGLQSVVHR
Chain of 320 wild-type protein kinases (Homo sapiens, UniProt Q9UBS0) (Q9UBS0 whole entry): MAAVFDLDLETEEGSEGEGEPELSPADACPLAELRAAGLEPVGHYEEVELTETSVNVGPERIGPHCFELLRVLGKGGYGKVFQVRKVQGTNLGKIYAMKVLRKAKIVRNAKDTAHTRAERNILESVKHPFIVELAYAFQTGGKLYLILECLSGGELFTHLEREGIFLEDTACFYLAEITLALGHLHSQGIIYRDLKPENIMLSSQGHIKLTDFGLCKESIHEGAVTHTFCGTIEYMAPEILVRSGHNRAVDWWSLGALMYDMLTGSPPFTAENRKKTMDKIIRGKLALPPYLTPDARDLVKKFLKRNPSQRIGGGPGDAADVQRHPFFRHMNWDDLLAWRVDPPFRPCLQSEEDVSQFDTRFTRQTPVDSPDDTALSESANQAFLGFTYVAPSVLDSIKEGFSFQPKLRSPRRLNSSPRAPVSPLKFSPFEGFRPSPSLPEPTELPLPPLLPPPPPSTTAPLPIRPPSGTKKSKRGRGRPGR
Chain of 320 wild-type protein kinases (Homo sapiens, UniProt Q9BWU1) (Q9BWU1 whole entry): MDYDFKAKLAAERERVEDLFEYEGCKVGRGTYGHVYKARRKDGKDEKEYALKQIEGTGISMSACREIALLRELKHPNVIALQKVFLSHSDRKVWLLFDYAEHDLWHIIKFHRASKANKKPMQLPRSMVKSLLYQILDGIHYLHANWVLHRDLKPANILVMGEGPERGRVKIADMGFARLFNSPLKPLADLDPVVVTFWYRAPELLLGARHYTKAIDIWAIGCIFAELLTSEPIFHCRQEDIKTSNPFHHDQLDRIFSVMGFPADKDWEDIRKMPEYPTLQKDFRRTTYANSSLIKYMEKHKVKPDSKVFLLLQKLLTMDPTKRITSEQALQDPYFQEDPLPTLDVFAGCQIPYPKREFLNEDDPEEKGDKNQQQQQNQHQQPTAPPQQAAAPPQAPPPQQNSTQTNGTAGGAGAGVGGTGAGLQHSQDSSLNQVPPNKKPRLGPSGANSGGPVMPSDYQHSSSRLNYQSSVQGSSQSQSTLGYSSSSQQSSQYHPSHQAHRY
Chain of 320 wild-type protein kinases (Homo sapiens, UniProt P29317) (P29317 24-976): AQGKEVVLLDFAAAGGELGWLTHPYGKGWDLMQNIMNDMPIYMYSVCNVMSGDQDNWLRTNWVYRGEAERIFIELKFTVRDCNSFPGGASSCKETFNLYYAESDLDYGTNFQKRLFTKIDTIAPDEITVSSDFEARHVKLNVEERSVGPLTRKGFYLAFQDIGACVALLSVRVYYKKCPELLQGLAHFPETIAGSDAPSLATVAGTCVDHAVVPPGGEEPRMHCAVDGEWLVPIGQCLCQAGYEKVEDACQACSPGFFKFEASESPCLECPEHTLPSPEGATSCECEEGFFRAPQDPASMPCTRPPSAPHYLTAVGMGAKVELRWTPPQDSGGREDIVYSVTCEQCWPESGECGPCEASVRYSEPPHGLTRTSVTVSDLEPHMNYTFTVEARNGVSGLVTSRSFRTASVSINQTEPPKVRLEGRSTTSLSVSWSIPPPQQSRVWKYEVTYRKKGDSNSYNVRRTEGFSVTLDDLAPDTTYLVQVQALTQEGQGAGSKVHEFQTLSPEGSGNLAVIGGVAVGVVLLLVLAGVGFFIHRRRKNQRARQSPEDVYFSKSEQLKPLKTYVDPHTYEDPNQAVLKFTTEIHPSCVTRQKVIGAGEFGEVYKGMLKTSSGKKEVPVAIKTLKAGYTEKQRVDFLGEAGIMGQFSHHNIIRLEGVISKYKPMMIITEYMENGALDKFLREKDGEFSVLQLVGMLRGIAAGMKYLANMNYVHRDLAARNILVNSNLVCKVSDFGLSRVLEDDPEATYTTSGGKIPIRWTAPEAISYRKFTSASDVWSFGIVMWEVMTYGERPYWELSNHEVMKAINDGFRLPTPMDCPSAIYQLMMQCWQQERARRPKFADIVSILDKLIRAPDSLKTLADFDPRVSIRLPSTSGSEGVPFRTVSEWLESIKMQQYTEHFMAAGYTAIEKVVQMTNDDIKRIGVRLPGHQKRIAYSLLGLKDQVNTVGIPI
Chain of 320 wild-type protein kinases (Homo sapiens, UniProt P49137) (P49137 whole entry): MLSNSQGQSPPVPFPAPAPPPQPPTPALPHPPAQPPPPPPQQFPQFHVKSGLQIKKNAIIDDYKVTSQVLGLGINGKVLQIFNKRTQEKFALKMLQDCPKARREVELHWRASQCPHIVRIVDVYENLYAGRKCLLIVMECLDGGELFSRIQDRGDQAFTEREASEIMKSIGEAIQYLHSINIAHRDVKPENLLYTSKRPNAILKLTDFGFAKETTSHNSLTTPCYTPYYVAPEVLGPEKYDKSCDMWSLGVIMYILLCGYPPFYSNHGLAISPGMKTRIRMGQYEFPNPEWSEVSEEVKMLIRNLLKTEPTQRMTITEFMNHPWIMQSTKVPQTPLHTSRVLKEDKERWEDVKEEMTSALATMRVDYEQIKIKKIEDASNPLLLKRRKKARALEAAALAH

As for `C#Cc1cc(Nc2ncnc3cc(I)ccc23)ccc1Cl` [Compound 41], the “Residual activity, S6K-beta” value is given as 102 % of control in [1] (assay conc. 1.0E-06 M) and 96 % of control in test [1] (assay conc. 1.0E-07 M). Also, the Residual activity in [2] (1.0E-06 M) is recorded as 110 % of control; in [2] (1.0E-07 M) it was 113 % of control; in test [3] (MST1, 1.0E-06 M), 84 % of control; in test [3] (MST1, 1.0E-07 M), 80 % of control; in test [4] (1.0E-06 M), 93 % of control; in test [4] (1.0E-07 M), 91 % of control. The Residual activity in test [6] (EPHA2, 1.0E-06 M) is 91 % of control; in test [6] (EPHA2, 1.0E-07 M), 90 % of control; in test [7] (MAPKAPK2, 1.0E-07 M) it was 139 % of control; in test [8] (MAP3K7/MAP3K7IP1, 1.0E-06 M), 87 % of control; in [8] (MAP3K7/MAP3K7IP1, 1.0E-07 M) it was 98 % of control; in test [9] (1.0E-06 M), 115 % of control. In addition, in test [9] (1.0E-07 M), the Residual activity is reported as 134 % of control. Also, the “Residual activity, TEC” value in test [5] (assay conc. 1.0E-06 M) is recorded as 90 % of control; in test [5] (assay conc. 1.0E-07 M), 96 % of control.
In the case of `C#Cc1cc(Nc2ncnc3cc(OC)c(OC)cc23)ccc1Cl` [Compound 45], the entries for the “Residual activity, S6K-beta” value in test [1] (assay conc. 1.0E-06 M) and in [1] (assay conc. 1.0E-07 M) were 86 % of control and 105 % of control, respectively. The Residual activity was 93 % of control in [2] (1.0E-06 M); 115 % of control in test [2] (1.0E-07 M); 83 % of control in test [3] (MST1, 1.0E-06 M); 89 % of control in test [3] (MST1, 1.0E-07 M); 97 % of control in test [4] (1.0E-06 M); 104 % of control in test [4] (1.0E-07 M). The Residual activity in [6] (EPHA2, 1.0E-06 M) is listed as 81 % of control; in test [6] (EPHA2, 1.0E-07 M) it was 87 % of control; in [7] (MAPKAPK2, 1.0E-06 M) it was 138 % of control; in test [8] (MAP3K7/MAP3K7IP1, 1.0E-06 M), 79 % of control; in test [8] (MAP3K7/MAP3K7IP1, 1.0E-07 M), 81 % of control; in test [9] (1.0E-06 M) it was 111 % of control. Besides, the Residual activity in [9] (1.0E-07 M) is given as 129 % of control. In addition, the “Residual activity, TEC” value was 92 % of control in [5] (assay conc. 1.0E-06 M) and 108 % of control in test [5] (assay conc. 1.0E-07 M).
